Test system: PP13
Assay: PP13 level in maternal venous serum of pregnant women under tocolytic treatment, solid-phase sandwich ELISA
Assay type: in vivo, human
Conditions: Example V: repeated administrations, compared with normal
Experimental: In all experiments, PP13 was measured (blinded to pregnancy outcome) in maternal venous serum by solid-phase sandwich ELISA assay. PP13 level was calibrated according to standard curves prepared from calibrated standards of recombinant PP13. Concentrations are given in pg PP13/ml serum.
This clinical study was approved by the medical center internal review ethical committee, and all women enrolled in the study provided informed consent to allow the use of a small volume of their blood to determine the level of PP13.

**Q.** `COC(=O)C1=C(C)NC(C)=C(C(=O)OC)C1c1ccccc1[N+](=O)[O-]` [nifedipine] was tested. Which “area of elevated PP13 level above normal” value did it give?
**A.** 5.8 times

— patent US7776557B2, “Method for monitoring tocolytic treatment” (Diagnostic Technologies Ltd., priority 2006, dated 2010)
